7 compounds from PubChem BioAssay AID342 (DTP/NCI, 2004) can be followed below.

In this test the test system is Swiss mice, Sarcoma 180 sc, mean tumor weight T/C. Kind of test: NCI In Vivo Anticancer Drug Screen. Data for tumor model Sarcoma 180 (subcutaneous) in Swiss mice. Conditions: endpoint: mean tumor weight, higher = larger tumour. An outline of the steps: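 T/C ratio: treated over vehicle-treated controls, measuring survival or tumor size in transplanted-tumor mice.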

“And” between values parts separate entries of the source, which are not always exact repeats. Identical values can stand only once.

Regarding `CSCS(=O)C[C@H](CO)NC(=O)/C=C/c1c(C)[nH]c(=O)[nH]c1=O` (some centres undefined), the T/C (usually the result in the treated group divided by that in the control group, in per cent) reads like this: (dose: 0.03 mg/kg/injection, schedule: Q#A X014 (ip), vehicle: saline) 64 % of control; (dose: 0.06 mg/kg/injection, schedule: Q01DX007 (ip), vehicle: saline) 81 % of control; (dose: 0.06 mg/kg/injection, schedule: Q01DX007 (sc), vehicle: saline) 107 % of control; (dose: 0.06 mg/kg/injection, schedule: Q#A X014 (ip), vehicle: saline) 54 % of control; (dose: 0.12 mg/kg/injection, schedule: Q#A X014 (ip), vehicle: saline) 44 % of control; (dose: 0.13 mg/kg/injection, schedule: Q01DX007 (ip), vehicle: saline) 50 % of control. The T/C reads like this: (dose: 0.13 mg/kg/injection, schedule: Q01DX007 (sc), vehicle: saline) 81 % of control; (dose: 0.19 mg/kg/injection, schedule: Q03DX003 (ip), vehicle: saline) 88 % of control; (dose: 0.25 mg/kg/injection, schedule: Q01DX007 (ip), vehicle: saline) 39 % of control; (dose: 0.25 mg/kg/injection, schedule: Q01DX007 (iv), vehicle: saline) 87 % of control; (dose: 0.25 mg/kg/injection, schedule: Q01DX007 (oral), vehicle: saline) 97 % of control; (dose: 0.25 mg/kg/injection, schedule: Q01DX007 (sc), vehicle: saline) 78 % of control. For the same compound, the T/C (dose: 0.25 mg/kg/injection, schedule: Q#A X014 (ip), vehicle: saline) was 42 % of control; the T/C (dose: 0.38 mg/kg/injection, schedule: Q03DX003 (ip), vehicle: saline) was 76 % of control; the T/C (dose: 0.4 mg/kg/injection, schedule: Q#A X014 (ip), vehicle: carboxymethylcellulose (CMC)) was 58 % of control; the T/C (dose: 0.5 mg/kg/injection, schedule: Q01DX007 (ip), vehicle: saline) is 32 % of control; the T/C (dose: 0.5 mg/kg/injection, schedule: Q01DX007 (iv), vehicle: saline) was 86 % of control; the T/C (dose: 0.5 mg/kg/injection, schedule: Q01DX007 (oral), vehicle: saline) was 106 % of control. Further, the T/C was 17 % of control (dose: 0.5 mg/kg/injection, schedule: Q01DX007 (sc), vehicle: saline); 27 % of control (dose: 0.62 mg/kg/injection, schedule: Q#A X014 (ip), vehicle: carboxymethylcellulose (CMC)); 20 % of control (dose: 0.75 mg/kg/injection, schedule: Q#A X014 (ip), vehicle: carboxymethylcellulose (CMC)); 58 % of control (dose: 1.0 mg/kg/injection, schedule: Q01DX007 (iv), vehicle: saline); 59 % of control (dose: 1.0 mg/kg/injection, schedule: Q01DX007 (oral), vehicle: saline); 89 % of control (dose: 1.5 mg/kg/injection, schedule: Q03DX003 (ip), vehicle: saline). Further, the T/C reads like this: (dose: 2.0 mg/kg/injection, schedule: Q01DX007 (oral), vehicle: saline) 99 % of control; (dose: 62.5 mg/kg/injection, schedule: Q#A X014 (ip), vehicle: carboxymethylcellulose (CMC)) 79 % of control; (dose: 125.0 mg/kg/injection, schedule: Q#A X014 (ip), vehicle: carboxymethylcellulose (CMC)) 74 % of control.
Regarding `O=C1c2cc(Cl)ccc2-c2c(Cl)cc(Cl)cc21`, the T/C is, setting by setting: (dose: 25.0 mg/kg/injection, schedule: Q01DX007 (ip), vehicle: methylcellulose (MC)) 100 % of control; (dose: 43.0 mg/kg/injection, schedule: Q01DX007 (ip), vehicle: carboxymethylcellulose (CMC)) 76 % of control; (dose: 66.0 mg/kg/injection, schedule: Q01DX007 (ip), vehicle: carboxymethylcellulose (CMC)) 65 % of control; (dose: 98.0 mg/kg/injection, schedule: Q01DX007 (ip), vehicle: carboxymethylcellulose (CMC)) 44 % of control and 50 % of control; (dose: 147.0 mg/kg/injection, schedule: Q01DX007 (ip), vehicle: carboxymethylcellulose (CMC)) 36 % of control; (dose: 149.0 mg/kg/injection, schedule: Q01DX007 (ip), vehicle: carboxymethylcellulose (CMC)) 59 % of control. Further, the T/C (dose: 222.0 mg/kg/injection, schedule: Q01DX007 (ip), vehicle: carboxymethylcellulose (CMC)) is 30 % of control and 44 % of control; the T/C (dose: 222.0 mg/kg/injection, schedule: Q01DX007 (ip), vehicle: other) is 48 % of control; the T/C (dose: 333.0 mg/kg/injection, schedule: Q01DX007 (ip), vehicle: carboxymethylcellulose (CMC)) was 25 % of control and 32 % of control; the T/C (dose: 333.0 mg/kg/injection, schedule: Q01DX007 (ip), vehicle: other) was 39 % of control; the T/C (dose: 500.0 mg/kg/injection, schedule: Q01DX007 (ip), vehicle: carboxymethylcellulose (CMC)) was 22 % of control; the T/C (dose: 750.0 mg/kg/injection, schedule: Q01DX007 (ip), vehicle: other) was 27 % of control.
In the case of `CCCCCCCCCCCCCCCCNc1cccc2ccccc12`, the T/C by setting is: (dose: 111.0 mg/kg/injection, schedule: Q#A X014 (ip), vehicle: methylcellulose (MC)) 64 % of control and 82 % of control; (dose: 166.5 mg/kg/injection, schedule: Q#A X014 (ip), vehicle: methylcellulose (MC)) 49 % of control and 66 % of control; (dose: 250.0 mg/kg/injection, schedule: Q#A X014 (ip), vehicle: methylcellulose (MC)) 41 % of control.
As to `CCCCN(C)N=Nc1ccc(C(N)=O)cc1`, the T/C (dose: 50.0 mg/kg/injection, schedule: Q01DX007 (ip), vehicle: carboxymethylcellulose (CMC)) is 67 % of control and the T/C (dose: 75.0 mg/kg/injection, schedule: Q01DX007 (ip), vehicle: carboxymethylcellulose (CMC)) was 32 % of control.
As for `O=C(Nc1ccc(C2=NCCCN2)cc1)c1ccc(C(=O)Nc2ccc(C3=NCCCN3)cc2)cc1`, the T/C runs as follows: (dose: 0.2 mg/kg/injection, schedule: Q01DX007 (ip), vehicle: water) 83 % of control; (dose: 0.4 mg/kg/injection, schedule: Q01DX007 (ip), vehicle: water) 106 % of control; (dose: 0.8 mg/kg/injection, schedule: Q01DX007 (ip), vehicle: water) 88 % of control; (dose: 1.0 mg/kg/injection, schedule: Q01DX007 (ip), vehicle: carboxymethylcellulose (CMC)) 80 % of control; (dose: 1.6 mg/kg/injection, schedule: Q01DX007 (ip), vehicle: water) 90 % of control; (dose: 2.0 mg/kg/injection, schedule: Q01DX007 (ip), vehicle: carboxymethylcellulose (CMC)) 93 % of control. Besides, the T/C is 104 % of control (dose: 8.0 mg/kg/injection, schedule: Q01DX007 (ip), vehicle: carboxymethylcellulose (CMC)); 25 % of control (dose: 16.0 mg/kg/injection, schedule: Q01DX007 (ip), vehicle: carboxymethylcellulose (CMC)); 14 % of control (dose: 32.0 mg/kg/injection, schedule: Q01DX007 (ip), vehicle: carboxymethylcellulose (CMC)).
On to `O=C(O)CCCc1ccc(N(CCCl)CCCl)cc1`, for which the T/C is 49 % of control (dose: 1.93 mg/kg/injection, schedule: Q01DX007 (ip), vehicle: carboxymethylcellulose (CMC)); 99 % of control (dose: 2.62 mg/kg/injection, schedule: Q#A X014 (ip), vehicle: carboxymethylcellulose (CMC)); 88 % of control (dose: 3.01 mg/kg/injection, schedule: Q01DX007 (ip), vehicle: carboxymethylcellulose (CMC)); 41 % of control (dose: 3.85 mg/kg/injection, schedule: Q01DX007 (ip), vehicle: carboxymethylcellulose (CMC)); 69 % of control (dose: 5.25 mg/kg/injection, schedule: Q#A X014 (ip), vehicle: carboxymethylcellulose (CMC)); 71 % of control (dose: 5.6 mg/kg/injection, schedule: Q01DX007 (ip), vehicle: carboxymethylcellulose (CMC)). Besides, the T/C runs as follows: (dose: 6.03 mg/kg/injection, schedule: Q01DX007 (ip), vehicle: carboxymethylcellulose (CMC)) 86 % of control; (dose: 7.0 mg/kg/injection, schedule: Q01DX007 (ip), vehicle: carboxymethylcellulose (CMC)) 52 % of control and 57 % of control; (dose: 7.7 mg/kg/injection, schedule: Q01DX007 (ip), vehicle: carboxymethylcellulose (CMC)) 37 % of control; (dose: 9.33 mg/kg/injection, schedule: Q01DX007 (ip), vehicle: carboxymethylcellulose (CMC)) 63 % of control; (dose: 10.5 mg/kg/injection, schedule: Q01DX007 (ip), vehicle: carboxymethylcellulose (CMC)) 60 % of control; (dose: 10.5 mg/kg/injection, schedule: Q#A X014 (ip), vehicle: carboxymethylcellulose (CMC)) 18 % of control. The T/C was 58 % of control (dose: 12.05 mg/kg/injection, schedule: Q01DX007 (ip), vehicle: carboxymethylcellulose (CMC)); 23 % of control and 48 % of control (dose: 14.0 mg/kg/injection, schedule: Q01DX007 (ip), vehicle: carboxymethylcellulose (CMC)).
On to `Fc1ccc(NC(=S)Nc2cc(Cl)cc(Cl)c2)cc1`, for which the T/C reads like this: (dose: 15.0 mg/kg/injection, schedule: Q01DX007 (ip), vehicle: carboxymethylcellulose (CMC)) 115 % of control; (dose: 30.0 mg/kg/injection, schedule: Q01DX007 (ip), vehicle: carboxymethylcellulose (CMC)) 117 % of control.
